Data taken from patent publication US20260007681A1, “INDOLE DERIVATIVES AS ESTROGEN RECEPTOR DEGRADERS” (REGENTS OF THE UNIVERSITY OF MICHIGAN, priority 2022, published 2026).

Target: ER (Homo sapiens (Human), UniProt P03372)
Assay: Western blot analysis (Compounds B1-B278)
Type: cell-based
Conditions: ER degradation by traditional Western blot; DC50 classes
Outline: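 Relative target-protein levels come from densitometry of immunoblots, normalized to GAPDH. Lysates from treated cells were prepared in RIPA buffer (pH 7.6) containing protease inhibitors, and equal protein amounts, checked by BCA, were separated on 10% gels and blotted onto PVDF.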

ER, sequence (P03372 whole entry): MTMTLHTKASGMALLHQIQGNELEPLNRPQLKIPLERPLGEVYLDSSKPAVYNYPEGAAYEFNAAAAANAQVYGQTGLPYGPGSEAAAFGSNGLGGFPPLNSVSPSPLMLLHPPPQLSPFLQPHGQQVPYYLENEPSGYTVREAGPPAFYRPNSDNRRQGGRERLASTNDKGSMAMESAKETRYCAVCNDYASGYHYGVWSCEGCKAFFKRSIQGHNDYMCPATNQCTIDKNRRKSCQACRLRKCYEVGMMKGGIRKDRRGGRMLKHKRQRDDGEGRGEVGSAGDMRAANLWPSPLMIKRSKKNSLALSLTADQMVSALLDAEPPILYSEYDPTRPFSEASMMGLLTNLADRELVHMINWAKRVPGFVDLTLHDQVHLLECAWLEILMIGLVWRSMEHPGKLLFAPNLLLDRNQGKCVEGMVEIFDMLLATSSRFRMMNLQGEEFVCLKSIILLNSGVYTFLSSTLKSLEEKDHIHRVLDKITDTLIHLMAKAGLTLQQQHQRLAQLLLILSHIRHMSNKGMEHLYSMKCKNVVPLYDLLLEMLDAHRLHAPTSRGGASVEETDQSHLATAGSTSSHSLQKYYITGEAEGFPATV

SMILES | Traditional Western Degradation Potency
C[C@@H]1Cc2c([nH]c3ccccc23)[C@@H](c2c(F)cc(C3CCC(C(=O)N4CC(N5Cc6cc7c(cc6C5)C(=O)N(C5CCC(=O)NC5=O)C7=O)C4)CC3)cc2F)N1CC(F)F (stereo partly drawn) [Compound B80, 6-(1-(4-(4-((1R,3R)-2-(2,2-difluoroethyl)-3-methyl-2,3,4,9-tetrahydro-1H-pyrido[3,4-b]indol-1-yl)-3,5-difluorophenyl)cyclohexane-1-carbonyl)azetidin-3-yl)-2-(2,6-dioxopiperidin-3-yl)-6,7-dihydropyrrolo[3,4-f]isoindole-1,3(2H,5H)-dione] | C (“C”: >100 nM)
C[C@@H]1Cc2c([nH]c3ccccc23)[C@@H](c2c(F)cc(C3CCC(C(=O)N4CC(CN5Cc6cc7c(cc6C5)C(=O)N(C5CCC(=O)NC5=O)C7=O)C4)CC3)cc2F)N1CC(F)F (stereo partly drawn) [Compound B81, 6-((1-(4-(4-((1R,3R)-2-(2,2-difluoroethyl)-3-methyl-2,3,4,9-tetrahydro-1H-pyrido[3,4-b]indol-1-yl)-3,5-difluorophenyl)cyclohexane-1-carbonyl)azetidin-3-yl)methyl)-2-(2,6-dioxopiperidin-3-yl)-6,7-dihydropyrrolo[3,4-f]isoindole-1,3(2H,5H)-dione] | A (“A”: <10 nM)
C[C@@H]1Cc2c([nH]c3ccccc23)[C@@H](c2c(F)cc(C3CCC(CN4CCC(N5Cc6cc7c(cc6C5)C(=O)N(C5CCC(=O)NC5=O)C7=O)CC4)CC3)cc2F)N1CC(F)F (stereo partly drawn) [Compound B82, 6-(1-((4-(4-((1R,3R)-2-(2,2-difluoroethyl)-3-methyl-2,3,4,9-tetrahydro-1H-pyrido[3,4-b]indol-1-yl)-3,5-difluorophenyl)cyclohexyl)methyl)piperidin-4-yl)-2-(2,6-dioxopiperidin-3-yl)-6,7-dihydropyrrolo[3,4-f]isoindole-1,3(2H,5H)-dione] | C (“C”: >100 nM)
C[C@@H]1Cc2c([nH]c3ccccc23)[C@@H](c2c(F)cc(C3CCC(CN4CC(CN5Cc6cc7c(cc6C5)C(=O)N(C5CCC(=O)NC5=O)C7=O)C4)CC3)cc2F)N1CC(F)F (stereo partly drawn) [Compound B83, 6-((1-((4-(4-((1R,3R)-2-(2,2-difluoroethyl)-3-methyl-2,3,4,9-tetrahydro-1H-pyrido[3,4-b]indol-1-yl)-3,5-difluorophenyl)cyclohexyl)methyl)azetidin-3-yl)methyl)-2-(2,6-dioxopiperidin-3-yl)-6,7-dihydropyrrolo[3,4-f]isoindole-1,3(2H,5H)-dione] | C (“C”: >100 nM)
C[C@@H]1Cc2c([nH]c3ccccc23)[C@@H](c2c(F)cc(C3CCC(C(=O)N4CCC(N5Cc6cc7c(cc6C5)C(=O)N(C5CCC(=O)NC5=O)C7)CC4)CC3)cc2F)N1CC(F)F (stereo partly drawn) [Compound B84, 3-(6-(1-(4-(4-((1R,3R)-2-(2,2-difluoroethyl)-3-methyl-2,3,4,9-tetrahydro-1H-pyrido[3,4-b]indol-1-yl)-3,5-difluorophenyl)cyclohexane-1-carbonyl)piperidin-4-yl)-1-oxo-3,5,6,7-tetrahydropyrrolo[3,4-f]isoindol-2(1H)-yl)piperidine-2,6-dione] | A (“A”: <10 nM)
C[C@@H]1Cc2c([nH]c3ccccc23)[C@@H](c2c(F)cc(C3CCC(CN4CCC(N5Cc6cc7c(cc6C5)C(=O)N(C5CCC(=O)NC5=O)C7)CC4)CC3)cc2F)N1CC(F)F (stereo partly drawn) [Compound B85, 3-(6-(1-((4-(4-((1R,3R)-2-(2,2-difluoroethyl)-3-methyl-2,3,4,9-tetrahydro-1H-pyrido[3,4-b]indol-1-yl)-3,5-difluorophenyl)cyclohexyl)methyl)piperidin-4-yl)-1-oxo-3,5,6,7-tetrahydropyrrolo[3,4-f]isoindol-2(1H)-yl)piperidine-2,6-dione] | B (“B”: 10-100 nM)
C[C@@H]1Cc2c([nH]c3ccccc23)[C@@H](c2c(F)cc(-c3cnc(C(=O)N4CCC(N5Cc6cc7c(cc6C5)C(=O)N(C5CCC(=O)NC5=O)C7=O)CC4)nc3)cc2F)N1CC(F)F (stereo partly drawn) [Compound B86, 6-(1-(5-(4-((1R,3R)-2-(2,2-difluoroethyl)-3-methyl-2,3,4,9-tetrahydro-1H-pyrido[3,4-b]indol-1-yl)-3,5-difluorophenyl)pyrimidine-2-carbonyl)piperidin-4-yl)-2-(2,6-dioxopiperidin-3-yl)-6,7-dihydropyrrolo[3,4-f]isoindole-1,3(2H,5H)-dione] | B (“B”: 10-100 nM)
C[C@@H]1Cc2c([nH]c3ccccc23)[C@@H](c2c(F)cc(-c3ccc(C(=O)N4CCC(N5Cc6cc7c(cc6C5)C(=O)N(C5CCC(=O)NC5=O)C7=O)CC4)nc3)cc2F)N1CC(F)F (stereo partly drawn) [Compound B87, 6-(1-(5-(4-((1R,3R)-2-(2,2-difluoroethyl)-3-methyl-2,3,4,9-tetrahydro-1H-pyrido[3,4-b]indol-1-yl)-3,5-difluorophenyl)picolinoyl)piperidin-4-yl)-2-(2,6-dioxopiperidin-3-yl)-6,7-dihydropyrrolo[3,4-f]isoindole-1,3(2H,5H)-dione] | B (“B”: 10-100 nM)
C[C@@H]1Cc2c([nH]c3ccccc23)[C@@H](c2c(F)cc(-c3ccc(CN4CCC(N5Cc6cc7c(cc6C5)C(=O)N(C5CCC(=O)NC5=O)C7=O)CC4)nc3)cc2F)N1CC(F)F (stereo partly drawn) [Compound B88, 6-(1-((5-(4-((1R,3R)-2-(2,2-difluoroethyl)-3-methyl-2,3,4,9-tetrahydro-1H-pyrido[3,4-b]indol-1-yl)-3,5-difluorophenyl)pyridin-2-yl)methyl)piperidin-4-yl)-2-(2,6-dioxopiperidin-3-yl)-6,7-dihydropyrrolo[3,4-f]isoindole-1,3(2H,5H)-dione] | C (“C”: >100 nM)
C[C@@H]1Cc2c([nH]c3ccccc23)[C@@H](c2c(F)cc(-c3ccc(C(=O)N4CCC(N5Cc6cc7c(cc6C5)C(=O)N(C5CCC(=O)NC5=O)C7=O)CC4)cn3)cc2F)N1CC(F)F (stereo partly drawn) [Compound B89, 6-(1-(6-(4-((1R,3R)-2-(2,2-difluoroethyl)-3-methyl-2,3,4,9-tetrahydro-1H-pyrido[3,4-b]indol-1-yl)-3,5-difluorophenyl)nicotinoyl)piperidin-4-yl)-2-(2,6-dioxopiperidin-3-yl)-6,7-dihydropyrrolo[3,4-f]isoindole-1,3(2H,5H)-dione] | A (“A”: <10 nM)
C[C@@H]1Cc2c([nH]c3ccccc23)[C@@H](c2c(F)cc(-c3ccc(C(=O)N4CCC(N5Cc6cc7c(cc6C5)C(=O)N(C5CCC(=O)NC5=O)C7=O)CC4)nn3)cc2F)N1CC(F)F (stereo partly drawn) [Compound B91, 6-(1-(6-(4-((1R,3R)-2-(2,2-difluoroethyl)-3-methyl-2,3,4,9-tetrahydro-1H-pyrido[3,4-b]indol-1-yl)-3,5-difluorophenyl)pyridazine-3-carbonyl)piperidin-4-yl)-2-(2,6-dioxopiperidin-3-yl)-6,7-dihydropyrrolo[3,4-f]isoindole-1,3(2H,5H)-dione] | B (“B”: 10-100 nM)
C[C@@H]1Cc2c([nH]c3ccccc23)[C@@H](c2c(F)cc(-c3ncc(C(=O)N4CCC(N5Cc6cc7c(cc6C5)C(=O)N(C5CCC(=O)NC5=O)C7=O)CC4)cn3)cc2F)N1CC(F)F (stereo partly drawn) [Compound B92, 6-(1-(2-(4-((1R,3R)-2-(2,2-difluoroethyl)-3-methyl-2,3,4,9-tetrahydro-1H-pyrido[3,4-b]indol-1-yl)-3,5-difluorophenyl)pyrimidine-5-carbonyl)piperidin-4-yl)-2-(2,6-dioxopiperidin-3-yl)-6,7-dihydropyrrolo[3,4-f]isoindole-1,3(2H,5H)-dione] | A (“A”: <10 nM)
C[C@@H]1Cc2c([nH]c3ccccc23)[C@@H](c2c(F)cc(-c3ccc(C(=O)N4CCC(N5Cc6cc7c(cc6C5)C(=O)N(C5CCC(=O)NC5=O)C7=O)CC4)cc3)cc2F)N1CC(F)F (stereo partly drawn) [Compound B93, 6-(1-(4′-((1R,3R)-2-(2,2-difluoroethyl)-3-methyl-2,3,4,9-tetrahydro-1H-pyrido[3,4-b]indol-1-yl)-3′,5′-difluoro-[1,1′-biphenyl]-4-carbonyl)piperidin-4-yl)-2-(2,6-dioxopiperidin-3-yl)-6,7-dihydropyrrolo[3,4-f]isoindole-1,3(2H,5H)-dione] | A (“A”: <10 nM)
C[C@@H]1Cc2c([nH]c3ccccc23)[C@@H](c2c(F)cc(C3CCN(C(=O)C4CCC(N5Cc6cc7c(cc6C5)C(=O)N(C5CCC(=O)NC5=O)C7=O)CC4)CC3)cc2F)N1CC(F)F (stereo partly drawn) [Compound B94, 6-(4-(4-(4-((1R,3R)-2-(2,2-difluoroethyl)-3-methyl-2,3,4,9-tetrahydro-1H-pyrido[3,4-b]indol-1-yl)-3,5-difluorophenyl)piperidine-1-carbonyl)cyclohexyl)-2-(2,6-dioxopiperidin-3-yl)-6,7-dihydropyrrolo[3,4-f]isoindole-1,3(2H,5H)-dione] | B (“B”: 10-100 nM)
C[C@@H]1Cc2c([nH]c3ccccc23)[C@@H](c2c(F)cc(C3CCN(C[C@H]4CC[C@H](N5Cc6cc7c(cc6C5)C(=O)N(C5CCC(=O)NC5=O)C7=O)CC4)CC3)cc2F)N1CC(F)F (stereo partly drawn) [Compound B95, 6-((1R,4r)-4-((4-(4-((1R,3R)-2-(2,2-difluoroethyl)-3-methyl-2,3,4,9-tetrahydro-1H-pyrido[3,4-b]indol-1-yl)-3,5-difluorophenyl)piperidin-1-yl)methyl)cyclohexyl)-2-(2,6-dioxopiperidin-3-yl)-6,7-dihydropyrrolo[3,4-f]isoindole-1,3(2H,5H)-dione] | C (“C”: >100 nM)
C[C@@H]1Cc2c([nH]c3ccccc23)[C@@H](c2c(F)cc(C3CCN(C[C@H]4CC[C@H](N5Cc6cc7c(cc6C5)C(=O)N(C5CCC(=O)NC5=O)C7=O)CC4)CC3)cc2F)N1CC(F)F (stereo partly drawn) [Compound B96, 6-((1R,4r)-4-((4-(4-((1R,3R)-2-(2,2-difluoroethyl)-3-methyl-2,3,4,9-tetrahydro-1H-pyrido[3,4-b]indol-1-yl)-3,5-difluorophenyl)piperidin-1-yl)methyl)cyclohexyl)-2-(2,6-dioxopiperidin-3-yl)-6,7-dihydropyrrolo[3,4-f]isoindole-1,3(2H,5H)-dione] | C (“C”: >100 nM)
